Data as given in patent US20100226992A1 (ALCON RESEARCH, LTD., priority 2009, published 2010).

System: FGFR
Test: Kinase inhibition, cell-free enzymatic assay
Type: biochemical
Conditions: 1 mM ATP

IC50: > 12.5 µM
Structure (SMILES): Cc1ccc(F)c(NC(=O)Nc2ccc(-c3cccc4[nH]nc(N)c34)cc2)c1 [RTK Inhibitor, N-[4-(3-amino-1H-indazol-4-yl)phenyl]-N′-(2-fluoro-5-methylphenyl)urea]
